Assays:
Format in all cases: in vivo
[1] = tested on: canarygrass (Phalaris minor); test: Test B postemergence plant response
Method in brief: (§1)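 Plants grown in peat/vermiculite medium were sprayed postemergence at 2–18 cm height (1- to 4-leaf stage). After 13–15 days in the greenhouse, response was rated visually against untreated controls on a 0–100 scale (0 no effect, 100 complete control).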

[2] = tested on: winter barley (Hordeum vulgare); test: Test B postemergence plant response
Method in brief: as §1

[3] = tested on: windgrass (Apera spica-venti); test: Test B postemergence plant response
Method in brief: as §1

[4] = tested on: chickweed (Stellaria media); test: Test B postemergence plant response
Method in brief: as §1

[5] = tested on: pigweed (Amaranthus retroflexus); test: Test B pre-/postemergence plant response
Method in brief: (§2)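 Response scores were assigned visually after 13 to 15 days in a greenhouse, comparing treated pots with controls on a 0–100 scale where 100 denotes complete control. Preemergence treatments went onto freshly seeded loam/sand soil; postemergence treatments onto plants 2 to 18 cm tall.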

[6] = tested on: lambsquarters (Chenopodium album); test: Test B pre-/postemergence plant response
Method in brief: as §2

[7] = tested on: wheat (Triticum aestivum); test: Test B pre-/postemergence plant response
Method in brief: as §2

[8] = tested on: Italian ryegrass (Lolium multiflorum); test: Test B pre-/postemergence plant response
Method in brief: as §2

[9] = tested on: ragweed (common ragweed, Ambrosia elatior); test: Test B pre-/postemergence plant response
Method in brief: as §2

[10] = tested on: bermudagrass (Cynodon dactylon); test: Test B pre-/postemergence plant response
Method in brief: as §2

[11] = 62 g ai/ha, postemergence, 0 is no effect, 100 is complete control, 13 to 15 days

## O=C1CCCC(O)=C1C(=O)c1cnc(-c2ccccc2)n(C2CCCCC2)c1=O [Compound 128, 3-cyclohexyl-5-[(2-hydroxy-6-oxo-1-cyclohexen-1-yl)carbonyl]-2-phenyl-4(3H)-pyrimidinone]
[1]; [11]
  Canarygrass plant response rating (0 to 100 scale): 10
[1]; Phalaris minor, post-emergence, 360 h, Postemergence, 31 g ai/ha, 0 to 100 scale (0 no effect, 100 complete control), read-out: Plant response rating, Canarygrass
  pest or weed control at 31 g/ha: 10%
[1]; Phalaris minor, post-emergence, 360 h, Postemergence, 125 g ai/ha, scale 0 to 100 (0 no effect, 100 complete control), read-out: Plant response rating, Canarygrass
  pest or weed control at 125 g/ha: 30%
[1]; Phalaris minor, post-emergence, 360 h, Postemergence, 250 g ai/ha, scale 0 to 100 (0 no effect, 100 complete control), 13 to 15 days, read-out: Plant response rating, Canarygrass
  pest or weed control at 250 g/ha: 30%
[2]; [11]
  Barley plant response rating (0 to 100 scale): 0
[2]; Hordeum vulgare, post-emergence, Postemergence, 31 g ai/ha, 0 to 100 scale (0 no effect, 100 complete control), read-out: Plant response rating, Barley
  plant injury at 31 g/ha: 0%
[2]; Hordeum vulgare, post-emergence, Postemergence, 125 g ai/ha, scale 0 to 100 (0 no effect, 100 complete control), read-out: Plant response rating, Barley
  plant injury at 125 g/ha: 0%
[2]; Hordeum vulgare, post-emergence, Postemergence, 250 g ai/ha, scale 0 to 100 (0 no effect, 100 complete control), 13 to 15 days, read-out: Plant response rating, Barley
  plant injury at 250 g/ha: 5%
[3]; [11]
  Windgrass plant response rating (0 to 100 scale): 65
[3]; Apera spica-venti, post-emergence, 360 h, Postemergence, 31 g ai/ha, 0 to 100 scale (0 no effect, 100 complete control), read-out: Plant response rating, Windgrass
  pest or weed control at 31 g/ha: 50%
[3]; Apera spica-venti, post-emergence, 360 h, Postemergence, 125 g ai/ha, scale 0 to 100 (0 no effect, 100 complete control), read-out: Plant response rating, Windgrass
  pest or weed control at 125 g/ha: 70%
[3]; Apera spica-venti, post-emergence, 360 h, Postemergence, 250 g ai/ha, scale 0 to 100 (0 no effect, 100 complete control), 13 to 15 days, read-out: Plant response rating, Windgrass
  pest or weed control at 250 g/ha: 85%
[4]; [11]
  Chickweed plant response rating (0 to 100 scale): 90
[4]; Stellaria media, post-emergence, 360 h, Postemergence, 31 g ai/ha, 0 to 100 scale (0 no effect, 100 complete control), read-out: Plant response rating, Chickweed
  pest or weed control at 31 g/ha: 90%
[4]; Stellaria media, post-emergence, 360 h, Postemergence, 125 g ai/ha, scale 0 to 100 (0 no effect, 100 complete control), read-out: Plant response rating, Chickweed
  pest or weed control at 125 g/ha: 95%
[4]; Stellaria media, post-emergence, 360 h, Postemergence, 250 g ai/ha, scale 0 to 100 (0 no effect, 100 complete control), 13 to 15 days, read-out: Plant response rating, Chickweed
  pest or weed control at 250 g/ha: 100%
[5]; [11]
  Pigweed plant response rating (0 to 100 scale): 98
[5]; Amaranthus retroflexus, post-emergence, Postemergence, 31 g ai/ha, 0 to 100 scale (0 no effect, 100 complete control), read-out: Plant response rating, Pigweed
  pest or weed control at 31 g/ha: 95%
[5]; Amaranthus retroflexus, post-emergence, Postemergence, 125 g ai/ha, scale 0 to 100 (0 no effect, 100 complete control), read-out: Plant response rating, Pigweed
  pest or weed control at 125 g/ha: 98%
[5]; Amaranthus retroflexus, post-emergence, Postemergence, 250 g ai/ha, scale 0 to 100 (0 no effect, 100 complete control), 13 to 15 days, read-out: Plant response rating, Pigweed
  pest or weed control at 250 g/ha: 100%
[6]; [11]
  Lambsquarters plant response rating (0 to 100 scale): 98
[6]; Chenopodium album, post-emergence, Postemergence, 31 g ai/ha, 0 to 100 scale (0 no effect, 100 complete control), read-out: Plant response rating, Lambsquarters
  pest or weed control at 31 g/ha: 95%
[6]; Chenopodium album, post-emergence, Postemergence, 125 g ai/ha, scale 0 to 100 (0 no effect, 100 complete control), read-out: Plant response rating, Lambsquarters
  pest or weed control at 125 g/ha: 100%
[6]; Chenopodium album, post-emergence, Postemergence, 250 g ai/ha, scale 0 to 100 (0 no effect, 100 complete control), 13 to 15 days, read-out: Plant response rating, Lambsquarters
  pest or weed control at 250 g/ha: 100%
[7]; [11]
  Wheat plant response rating (0 to 100 scale): 0
[7]; Triticum aestivum, post-emergence, Postemergence, 31 g ai/ha, 0 to 100 scale (0 no effect, 100 complete control), read-out: Plant response rating, Wheat
  plant injury at 31 g/ha: 0%
[7]; Triticum aestivum, post-emergence, Postemergence, 125 g ai/ha, scale 0 to 100 (0 no effect, 100 complete control), read-out: Plant response rating, Wheat
  plant injury at 125 g/ha: 0%
[7]; Triticum aestivum, post-emergence, Postemergence, 250 g ai/ha, scale 0 to 100 (0 no effect, 100 complete control), 13 to 15 days, read-out: Plant response rating, Wheat
  plant injury at 250 g/ha: 5%
[8]; [11]
  Ryegrass, Italian plant response rating (0 to 100 scale): 0
[8]; Lolium multiflorum, post-emergence, Postemergence, 31 g ai/ha, 0 to 100 scale (0 no effect, 100 complete control), read-out: Plant response rating, Ryegrass, Italian
  pest or weed control at 31 g/ha: 0%
[8]; Lolium multiflorum, post-emergence, Postemergence, 125 g ai/ha, scale 0 to 100 (0 no effect, 100 complete control), read-out: Plant response rating, Ryegrass, Italian
  pest or weed control at 125 g/ha: 5%
[8]; Lolium multiflorum, post-emergence, Postemergence, 250 g ai/ha, scale 0 to 100 (0 no effect, 100 complete control), 13 to 15 days, read-out: Plant response rating, Ryegrass, Italian
  pest or weed control at 250 g/ha: 30%
[9]; [11]
  Ragweed plant response rating (0 to 100 scale): 85
[9]; Ambrosia artemisiifolia, post-emergence, 360 h, Postemergence, 31 g ai/ha, 0 to 100 scale (0 no effect, 100 complete control), read-out: Plant response rating, Ragweed
  pest or weed control at 31 g/ha: 85%
[9]; Ambrosia artemisiifolia, post-emergence, 360 h, Postemergence, 125 g ai/ha, scale 0 to 100 (0 no effect, 100 complete control), read-out: Plant response rating, Ragweed
  pest or weed control at 125 g/ha: 95%
[9]; Ambrosia artemisiifolia, post-emergence, 360 h, Postemergence, 250 g ai/ha, scale 0 to 100 (0 no effect, 100 complete control), 13 to 15 days, read-out: Plant response rating, Ragweed
  pest or weed control at 250 g/ha: 98%
[10]; [11]
  Bermudagrass plant response rating (0 to 100 scale): 85
[10]; Cynodon dactylon, post-emergence, Postemergence, 31 g ai/ha, 0 to 100 scale (0 no effect, 100 complete control), read-out: Plant response rating, Bermudagrass
  pest or weed control at 31 g/ha: 75%
[10]; Cynodon dactylon, post-emergence, Postemergence, 125 g ai/ha, scale 0 to 100 (0 no effect, 100 complete control), read-out: Plant response rating, Bermudagrass
  pest or weed control at 125 g/ha: 98%
[10]; Cynodon dactylon, post-emergence, Postemergence, 250 g ai/ha, scale 0 to 100 (0 no effect, 100 complete control), 13 to 15 days, read-out: Plant response rating, Bermudagrass
  pest or weed control at 250 g/ha: 100%
